# Reference: patent US20250115557A1, “TOTAL SYNTHESES OF SELENONEINE, ISO-SELENONEINE, AND ISOMERS” (UNIVERSITÉ LAVAL, priority 2022, published 2025)
# Like-named read-outs stand apart in the source and are kept apart here.
# How the values were obtained:
# [1] = tested on: K562-S human leukemia cell line; assay: Preliminary experiments: concentration of toxicant decreasing cell survival by 50%; type: cell-based; details: K562 cells
# Procedure: (§1) In vitro protection assays against either methylmercury chloride (MeHgCl) or tert-butyl hydroperoxide (t-BuOOH) were conducted with the K562-S human leukemia cell line (REF #CRL-3343™) obtained from the American Type Culture Collection (ATCC). Cells were cultured in Gibco RPMI 1640 complete growth medium with L-Glutamine (REF #31800-105), NaHCO3 (2 g/L), 10% FBS (REF #080-750), 2% antibiotic-antimycotic from Gibco (REF #15240-062), pH 7.4, and maintained at 37° C. in a 5% CO2 incubator and protected from light.
# (§2) An uptake induction step, in a saline buffer containing 125 mM of NaCl; 25 mM of HEPES-NaOH (pH 7.4); 5.6 mM of D(+)-glucose; 4.8 mM KCl; 1.2 mM of KH2PO4; 1.2 mM of CaCl2; and 1.2 mM of MgSO4, was performed prior to adding selenoneine or ergothioneine to the cell medium.^[22,23] Cells were resuspended in triplicate and pre-incubated in the saline buffer at a density of 2×10^6 cells/mL for 20 minutes at 37° C. under slight agitation. Cells were then incubated during 4 hours in the same buffer and conditions but supplemented with the protective agent of interest—either ergothioneine or selenoneine—in the presence of 0.15 mM of reduced glutathione (GSH). […] Results are expressed as the mean±standard error of the mean of triplicates. […]
# [2] = tested on: human erythroid K562 cells; type: cell-based; details: for Viability of cells exposed to t-BuOOH: 830 μM t-BuOOH 1 h, protective agent 2.5-150 μM, 4 h pre-incubation, FIG. 3
# Procedure: (§3) Since selenoneine is the analog of the well-known natural antioxidant and cytoprotectant ergothioneine, its capacity as an antioxidant and cytoprotectant was assessed. To that effect, the capacity of selenoneine to protect cells against the cytotoxic effects induced by t-butyl hydroperoxide (t-BuOOH) and methylmercury chloride (MeHgCl) was assessed. Human erythroid K562 cells expressing the ergothioneine transporter (OCTN1) were exposed to the IC50 values of t-BuOOH and MeHgCl respectively, in the presence of increasing concentrations of either selenoneine or ergothioneine. The cell viability was subsequently assessed using the trypan blue viability exclusion test.^[20]
# as §1
# as §2, with “(GSH). Concentrations of protective agents, either ergothioneine or selenoneine, used for these experiments were 2.5, 5, 25, 50, 100, and 150 μM (FIGS. 3 and 4).” for “(GSH).”
# [3] = tested on: human erythroid K562 cells; assay: Protection against MeHgCl induced cytotoxicity, trypan blue viability exclusion test; type: cell-based; details: for Viability of cells exposed to MeHgCl: 5 μM MeHgCl overnight (18h), protective agent 2.5-150 μM, 4 h pre-incubation, FIG. 4
# Procedure: as §3, §1
# An uptake induction step, in a saline buffer containing 125 mM of NaCl; 25 mM of HEPES-NaOH (pH 7.4); 5.6 mM of D(+)-glucose; 4.8 mM KCl; 1.2 mM of KH2PO4; 1.2 mM of CaCl2; and 1.2 mM of MgSO4, was performed prior to adding selenoneine or ergothioneine to the cell medium.^[22,23] Cells were resuspended in triplicate and pre-incubated in the saline buffer at a density of 2×10^6 cells/mL for 20 minutes at 37° C. under slight agitation. Cells were then incubated during 4 hours in the same buffer and conditions but supplemented with the protective agent of interest—either ergothioneine or selenoneine—in the presence of 0.15 mM of reduced glutathione (GSH). Concentrations of protective agents, either ergothioneine or selenoneine, used for these experiments were 2.5, 5, 25, 50, 100, and 150 μM (FIGS. 3 and 4). Cells were then washed twice in cold phosphate-buffered saline (PBS) and resuspended in complete RPMI growth medium and divided into two groups at a density of 1×10^6 cells/mL. One group of cells remained untreated (control group) while the other group was treated with either 830 μM of t-BuOOH, or 5 μM of MeHgCl. These concentrations were determined to decrease cell survival by 50% in preliminary experiments (IC50 values). Cells were then incubated at 37° C. under slight agitation over a period of one (1) hour in the case of t-BuOOH, or overnight (18h) for MeHgCl. The cells were then washed twice in cold PBS before being resuspended in complete RPMI growth medium at a density of 5×10^5 cells/mL. The trypan blue viability exclusion test was then conducted using a Hausser Scientific™ Bright-Line™ Phase Hemacytometer. Viable cells (%)=[total number of viable cells per mL of aliquot/total number of cells per mL of aliquot]×100.^[20] Results are expressed as the mean±standard error of the mean of triplicates. These experiments were repeated twice, and similar results were obtained.
# [4] = S at C-5 (ovothiols) versus S at C-2 (ergothioneine); cited from earlier work
structure (smiles),measurement,setting,value
"CC(C)(C)OO [t-BuOOH, t-butyl hydroperoxide]",IC50,[1]; Homo sapiens,830 µM
"[CH3][Hg][Cl] [MeHgCl, methylmercury chloride]",IC50,[1],5 µM
C[N+](C)(C)[C@@H](Cc1c[nH]c(=S)[nH]1)C(=O)[O-] [ergothioneine],Viability of cells exposed to t-BuOOH,[2],increased with increasing concentrations
same,Viability of cells exposed to MeHgCl,[3],increased with increasing concentrations
same,Cell viability versus control groups at concentrations of 150 μM or higher,"[3]; 5 μM MeHgCl, K562 cells, protective agent 150 μM or higher",did not result in cell viabilities comparable to those of the control groups
same,pKa value,[4],8.7
"C[N+](C)(C)[C@@H](Cc1c[nH]c(=[Se])[nH]1)C(=O)[O-] [selenoneine, (S)-3-(2-selenoxo-2,3-dihydro-1H-imidazol-4-yl)-2-(trimethylammonio) propanoate]",Viability of cells exposed to t-BuOOH,[2],increased with increasing concentrations
same,Concentration resulting in cell viabilities comparable to those of the control groups,"[2]; 830 μM t-BuOOH, K562 cells",≥ 100 µM
same,Viability of cells exposed to MeHgCl,[3],increased with increasing concentrations
same,Concentration resulting in cell viabilities comparable to those of the control groups,"[3]; 5 μM MeHgCl, K562 cells",≥ 100 µM
same,"Protective effect against MeHgCl induced cytotoxicity, comparison","[3]; 5 μM MeHgCl, K562 cells",greater protective effect relative to ergothioneine
